Source: patent US10758513B2, “Modulators of mitochondrial protein import” (THE REGENTS OF THE UNIVERSITY OF CALIFORNIA, priority 2011, dated 2020)

Columns and labels:
[1] = test system: tim10-1 tim9S mitochondria; assay: Membrane potential with rhodamine 123; assay type: biochemical, yeast; settings: 25 μM MitoBloCK-1; CCCP as control
Procedure: Membrane potential measurement assays were conducted with a SPEX spectrofluorometer system (HORIBA Jobin Yvon) with a magnetically stirred cuvette held at 25° C. The quenching of rhodamine 123 fluorescence (Em, =530 nm and Ex=485 nm) was used as previously described (9) to detect changes in mitochondrial membrane potential. Purified tim10-1 tim9S mitochondrial aliquots were thawed and resuspended in respiration buffer (0.65 M mannitol, 0.3 mM EGTA, 3 mm tris-phosphate, 10 mM tris-maleate, pH 6.75). Trials were started by adding 100 nM of rhodamine 123 to respiration buffer. After a period of signal stabilization, mitochondria were added to a concentration of 100 μg/mL. Either drug or DMSO was then added to a final vehicle concentration of 1% following the establishment of baseline quenched fluorescence. Finally, mitochondria were uncoupled with 3 μM CCCP.

Tim9-Tim10 complex = target: T1, Tim9-Tim10 complex (Saccharomyces cerevisiae, UniProt O74700+P87108); assay: Tim9-Tim10 complex stability by blue native gel; assay type: biochemical, yeast; settings: 25 and 50 μM; BN gel
T1 construct: endogenous in cells; host or cells: isolated yeast mitochondria
T1 sequence (O74700 whole entry): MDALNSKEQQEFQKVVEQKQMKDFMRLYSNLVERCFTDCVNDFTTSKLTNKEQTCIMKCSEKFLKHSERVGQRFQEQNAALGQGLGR
T1 sequence (P87108 whole entry): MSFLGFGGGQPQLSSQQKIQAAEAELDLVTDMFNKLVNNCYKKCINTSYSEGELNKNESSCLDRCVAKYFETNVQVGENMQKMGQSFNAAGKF
Procedure: Respiration measurements were performed with an oxygen electrode using yeast mitochondria (M) from the tim10 tim9S suppressor strain in the presence of (A) 1% DMSO (vehicle control for drug) and (B) MitoBloCK-1. Respiration was initiated with NADH addition. 25 μM MitoBloCK-1 or 1% DMSO was added once steady-state respiration had been established. As a control, CCCP was added to uncouple the electron transport chain. (C) Respiration for series with DMSO or MitoBloCK-1 addition was quantitated (n=3). Bars represent mean rates with standard deviations as error bars. (D) Membrane potential (Δψ) of mitochondria measurements of purified mitochondria were performed with the fluorescent dye rhodamine 123 using a fluorimeter. Coupled mitochondria (M) sequestered and quenched the dye fluorescence; 1% DMSO was added to determine its effect on the […]. Collapse of the Δψ initiated by CCCP was included as a control. […] (H) As in 7B, MitoBloCK-1 (25 and 50 μM) was incubated with mitochondria and assembly of the Tim9-Tim10 complex was monitored by BN gels and immunoblotting with antibodies against Tim 10.
Steady-state levels of the small Tim complexes were analyzed from mitochondria isolates from TIA110,titn10-1, and titn10-1 titn9S strains following established methods (Murphy M P, et al., (2001), Mol Cell Biol 21:6132-6138). […]

HeLa cells = assay: MTT cell viability assay in HeLa cells (MitoBloCK-6); assay type: cell-based; settings: 100 μM
Procedure: Measurements for cell viability were made with a MTT based toxicology assay kit (Sigma) as described previously (Hasson et al., 2010). Briefly, HeLa cells were grown in 24-well tissue culture dishes to 80% confluency. Cells were then treated with DMSO or MitoBloCK-6 in complete medium for 12 h and reacted with MTT solution supplement for additional 4 hr as described in manufacturer's protocols. Percentage viability of each cell sample was calculated as: [(absorbance of vehicle treated cells)−(absorbance of MitoBloCK-6 treated cells)/(absorbance of vehicle treated cells)]×100.

ALR = target: T2, ALR (Homo sapiens, UniProt P55789); assay: In vitro ALR activity, Amplex Red-HRP assay; assay type: biochemical
T2 construct: Recombinant long form ALR, residues 1 to 205, was purified under native conditions; made in house
T2 sequence (P55789 whole entry, the tested form may be a part): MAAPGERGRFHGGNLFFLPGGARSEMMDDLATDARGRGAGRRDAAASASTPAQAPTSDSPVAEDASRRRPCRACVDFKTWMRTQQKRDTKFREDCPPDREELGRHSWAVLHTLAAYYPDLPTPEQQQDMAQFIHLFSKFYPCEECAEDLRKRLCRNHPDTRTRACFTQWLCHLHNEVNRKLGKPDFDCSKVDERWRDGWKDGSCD

Erv1 = target: T3, Erv1 (Saccharomyces cerevisiae, UniProt P27882); assay: Erv1-His pull-down of partner proteins from mitochondria; assay type: binding, yeast; settings: 50 μM, 30 min
T3 construct: made in house
T3 sequence (P27882 1-189): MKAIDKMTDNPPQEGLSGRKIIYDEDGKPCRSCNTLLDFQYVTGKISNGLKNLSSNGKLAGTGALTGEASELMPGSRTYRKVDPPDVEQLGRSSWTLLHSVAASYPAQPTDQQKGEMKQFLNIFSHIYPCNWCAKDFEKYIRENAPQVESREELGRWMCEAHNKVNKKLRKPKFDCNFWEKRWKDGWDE
Procedure: (A) Mitochondria from a strain expressing C-terminal histidine-tagged Erv1 were incubated with 50 μM MitoBloCK-6 or 1% DMSO for 30 min at 25° C. followed by solubilization in 1% digitonin buffer. As a control, 100 μg of extract was withdrawn (T), and 500 μg lysate was incubated with Ni+^2-agarose beads. The beads were washed and bound proteins (B) were eluted with SDS-PAGE sample buffer. To test effectiveness of binding, 100 μg of the unbound protein fraction (S) was also included. Proteins were analyzed by immunoblotting with polyclonal antibodies against Mia40, Erv1, and cyt c. (B) Recombinant Erv1 was preincubated with MitoBloCK-6 or 1% DMSO for 1 hr at 25° C. and then Erv1 (1 μM) was incubated with reduced Tim13 (15 μM) and Mia40 (1 μM) in a time course assay (Tienson et al., 2009). Aliquots were removed at the indicated times and free thiols on Tim13 were modified with AMS addition. Oxidized and reduced Tim13 were detected by non-reducing SDS-PAGE and immunoblotting with antibodies against Tim13.
MitoBloCK-6 was preincubated with mitochondria isolated from the Erv1-His strain followed by solubilization in 1.0% digitonin and Erv1-His was purified with Ni′ agarose. In DMSO treated cells, a small fraction of the Mia40 and half of the cyt c co-purified with Erv1, as reported previously (Tienson et al., 2009). […]

Row | Structure (SMILES) | rhodamine 123 fluorescence (membrane potential) [1] | steady-state stability of the Tim9-Tim10 complex (Tim9-Tim10 complex) | cell viability (MTT) (HeLa cells) | IC50 (ALR) | binding of Mia40 to Erv1 decreased by (Erv1) | binding of cyt c to Erv1 decreased by (Erv1)
1 | NC(=S)N/N=C/c1c(O)c(Br)cc2oc3c(c12)CCCC3 [MitoBloCK-1] | did not change | did not alter steady-state stability of the Tim9-Tim10 complex | – | – | – | –
2 | Oc1c(Cl)cc(Cl)cc1/C=N/c1ccc(Nc2ccccc2)cc1 [MitoBloCK-6] | – | – | did not significantly reduce cell viability | 700 nM | 75% | 95%
